The results in this text go back to patent publication US20240082218A1, “PHARMACEUTICAL COMBINATIONS COMPRISING A KRAS G12C INHIBITOR AND USES OF A KRAS G12C INHIBITOR FOR THE TREATMENT OF CANCERS” (priority 2020, published 2024).

Molecules are shown by their SMILES.

The assay concerns Lu99 KRAS G12C lung carcinoma xenograft. In words: Anti-tumor efficacy in Lu99 KRAS G12C lung carcinoma xenografts. In kind it is in vivo, mice. The settings on record: Lu99, oral, Compound A 100 mg/kg once daily, alone or in combination.

Protocol: It carries the allele NM_033360.4(KRAS):c.34G>T and consequently a heterozygous KRAS Gly12Cys mutation. Lu99 cells were grown in sterile conditions in a 37° C. incubator with 5% CO2 for two weeks. The cells were kept in RPMI media supplemented with 10% FCS, 2 mM L-Glutamin, 1 mM sodium pyruvate and 10 mM HEPES, and split 1:6 every 3 days. […] On the day of injection, cells were harvested after 8 passages in total, including passages from the vendor. Cells were resuspended in 50% HBSS and 50% Matrigel at a final concentration of 10·10^6 cells/ml.
Experiments were performed with female nude mice (Charles River Laboratories, Crl:NU(NCr)-Foxn1nu Homozygous). […] Animals were allowed to accommodate at least for 7 days.
Mice were injected subcutaneously with Lu99 human NSCLC cells to induce xenograft tumors and randomized into treatment groups when the mean tumor volume reached ˜250 mm^3.
The control group received a solution of 0.1% Tween 80 (Fisher Scientific AG #BP338-500) and 0.5% Methylcellulose in water.
The treatment period was between 9 to 28 days, depending on the groups.
Tumor growth was monitored regularly post cell inoculation and animals were randomized into treatment groups (n=6) when TV reached appropriate volume. During the treatment period, xenograft tumor sizes were measured about 2-3 times per week manually with calipers, and the TV was estimated in mm^3 using the formula: Length×Width^2/2.
Mice were injected subcutaneously with Lu99 human NSCLC cells to induce xenograft tumors and randomized into treatment groups when the mean tumor volume reached ˜200 mm^3. […] The treatment period was between 14 to 35 days, depending on the groups. Animals treated with vehicle were terminated at day 14. […] Tumor volumes were recorded and are represented as mean±SEM (standard error of the mean) for each group. Anti-tumor response of treatment groups vs. vehicle group was calculated at day 14 as % T/C or % regression.

Consider `C[C@@H]1OCC2(CCN(c3cnc(Sc4ccnc(N)c4Cl)c(N)n3)CC2)[C@@H]1N` [TNO155, (3S,4S)-8-(6-amino-5-((2-amino-3-chloropyridin-4-yl)thio)pyrazin-2-yl)-3-methyl-2-oxa-8-azaspiro[4.5]decan-4-amine], for which the “anti-tumor response (Example 7)” value (TNO155 10 mg/kg twice daily continuous) is given as “slight tumor growth delay”. Further, the “anti-tumor response (Example 6)” value (TNO155 10 mg/kg twice daily, up to 28 days) is recorded as “moderate anti-tumor response”.
